Several values for one entry are separate records, joined by “and”; a condition that tells them apart may be missing. Identical values can stand only once. Records with an inconclusive call do not appear.
System: MX-1 breast xenograft, nude mice, tumor weight T/C
Experiment: NCI In Vivo Anticancer Drug Screen. Data for tumor model Human Mammary Carcinoma MX-1 Xenograft (intrarenal inoculation) in NU/NU Swiss (nude) mice
Conditions: endpoint: mean tumor weight change, higher = larger tumour
Protocol: The antitumor activity of compounds was measured in mice bearing transplantable tumors. Survival or tumor size were measured and the results are expressed as the measurement made in the treated group (T) divided by the measurement made in the vehicle treated control group (C). The tumor model used in this assay is Human Mammary Carcinoma MX-1 Xenograft (intrarenal inoculation) in NU/NU Swiss (nude) mice

[1] = dose: 50.0 mg/kg/injection, schedule: Q01DX010 (sc), vehicle: Klucel (hydroxypropylcellulose) (HPC)
[2] = dose: 100.0 mg/kg/injection, schedule: Q01DX010 (sc), vehicle: Klucel (hydroxypropylcellulose) (HPC)
[3] = dose: 200.0 mg/kg/injection, schedule: Q01DX010 (sc), vehicle: Klucel (hydroxypropylcellulose) (HPC)
[4] = dose: 1200.0 mg/kg/injection, schedule: Q04DX003 (sc), vehicle: water
[5] = dose: 300.0 mg/kg/injection, schedule: Q04DX003 (sc), vehicle: saline with Tween-80
[6] = dose: 600.0 mg/kg/injection, schedule: Q04DX003 (sc), vehicle: saline with Tween-80
[7] = dose: 25.0 mg/kg/injection, schedule: Q01DX010 (sc), vehicle: Klucel (hydroxypropylcellulose) (HPC)

COc1nc(C(Cl)(Cl)Cl)c(Cl)c(OC)c1Cl
T/C (dose: 75.0 mg/kg/injection, schedule: Q04DX003 (ip), vehicle: Klucel (hydroxypropylcellulose) (HPC)): 33 % of control | T/C (dose: 150.0 mg/kg/injection, schedule: Q04DX003 (ip), vehicle: Klucel (hydroxypropylcellulose) (HPC)): -28 % of control | T/C (dose: 150.0 mg/kg/injection, schedule: Q04DX003 (oral), vehicle: Klucel (hydroxypropylcellulose) (HPC)): -33 % of control | T/C (dose: 300.0 mg/kg/injection, schedule: Q04DX003 (ip), vehicle: Klucel (hydroxypropylcellulose) (HPC)): 10 % of control | T/C (dose: 300.0 mg/kg/injection, schedule: Q04DX003 (oral), vehicle: Klucel (hydroxypropylcellulose) (HPC)): -15 % of control

Cc1cc(N(CCOS(C)(=O)=O)CCOS(C)(=O)=O)ccc1C=Nc1ccc(-c2nc(Cc3ccccc3)sc2C)cc1
T/C [1]: -79 % of control | T/C [2]: -88 % of control | T/C [3]: -87 % of control

CNc1nc(NC)nc(NC)n1
T/C (dose: 25.0 mg/kg/injection, schedule: Q01DX010 (ip), vehicle: Klucel (hydroxypropylcellulose) (HPC)): 164 % of control | T/C (dose: 100.0 mg/kg/injection, schedule: Q01DX010 (ip), vehicle: Klucel (hydroxypropylcellulose) (HPC)): 61 % of control | T/C [2]: 93 % of control | T/C (dose: 200.0 mg/kg/injection, schedule: Q01DX010 (ip), vehicle: Klucel (hydroxypropylcellulose) (HPC)): 40 % of control

COc1cccc2c1C(=O)c1c(O)c3c(c(O)c1C2=O)C[C@@](O)(C(=O)CO)C[C@@H]3OC1CC(N(C)C)C(O)C(C)O1 (stereo partly specified)
T/C (dose: 3.0 mg/kg/injection, schedule: Q01DX010 (sc), vehicle: water): 211 % of control | T/C (dose: 6.0 mg/kg/injection, schedule: Q01DX010 (sc), vehicle: water): 227 % of control

Nc1nc2c(ncn2C2OC(CO)C(O)C2O)c(=O)[nH]1.Nc1nc2c(ncn2C2OC(CO)C(O)C2O)c(=O)[nH]1.[NH2-].[NH2-].[Pt+2] (stereo unspecified)
T/C (dose: 300.0 mg/kg/injection, schedule: Q04DX003 (sc), vehicle: water): 68 % of control | T/C (dose: 600.0 mg/kg/injection, schedule: Q04DX003 (sc), vehicle: water): 22 % of control | T/C [4]: 3 % of control

CCCCCCCCCCCCCCCC(=O)Nc1ccn(C2OC(CO)C(O)C2O)c(=O)n1 (stereo unspecified)
T/C [4]: -65 % of control and -50 % of control

Cn1c(=O)[nH]c2nncnc2c1=O
T/C (dose: 125.0 mg/kg/injection, schedule: Q04DX003 (sc), vehicle: water): 92 % of control

CC1(C)N=C(N)N=C(N)N1c1ccc(CCCCc2ccc(S(=O)(=O)F)cc2Cl)c(Cl)c1
T/C (dose: 12.5 mg/kg/injection, schedule: Q01DX010 (sc), vehicle: suspension in saline): 87 % of control | T/C (dose: 25.0 mg/kg/injection, schedule: Q01DX010 (sc), vehicle: suspension in saline): 77 % of control | T/C (dose: 50.0 mg/kg/injection, schedule: Q01DX010 (sc), vehicle: suspension in saline): 57 % of control

COc1c(O)c2c(c3cc(C(=O)N4CCc5c4c(O)c(OC)c4[nH]c(C(=O)N6CC7CC78C6=CC(=O)c6[nH]cc(C)c68)cc54)[nH]c13)CCN2C(N)=O (stereo unspecified)
T/C (dose: 2.5 mg/kg/injection, schedule: Q01DX010 (sc), vehicle: DMSO): 37 % of control | T/C (dose: 5.0 mg/kg/injection, schedule: Q01DX010 (sc), vehicle: DMSO): 82 % of control | T/C (dose: 10.0 mg/kg/injection, schedule: Q01DX010 (sc), vehicle: DMSO): 1 % of control | T/C (dose: 6.25 micrograms/kg/injection, schedule: Q01DX010 (sc), vehicle: DMSO): 63 % of control | T/C (dose: 12.5 micrograms/kg/injection, schedule: Q01DX010 (sc), vehicle: DMSO): 53 % of control | T/C (dose: 25.0 micrograms/kg/injection, schedule: Q01DX010 (sc), vehicle: DMSO): 68 % of control | T/C (dose: 50.0 micrograms/kg/injection, schedule: Q01DX010 (sc), vehicle: DMSO): 90 % of control | T/C (dose: 100.0 micrograms/kg/injection, schedule: Q01DX010 (sc), vehicle: DMSO): 85 % of control | T/C (dose: 400.0 micrograms/kg/injection, schedule: Q01DX010 (sc), vehicle: DMSO): 117 % of control

CO[C@@]12[C@H](COC(N)=O)C3=C(C(=O)C(C)=C(N)C3=O)N1C[C@@H]1N[C@@H]12
T/C (dose: 3.0 mg/kg/injection, schedule: Q04DX003 (sc), vehicle: saline): -100 % of control | T/C (dose: 6.0 mg/kg/injection, schedule: Q04DX003 (sc), vehicle: saline): -88 % of control and -100 % of control (2×)

Cc1cc(O)c(N=Nc2ccc(C(=O)O)cc2)cc1C
T/C [5]: 123 % of control | T/C [6]: 124 % of control | T/C (dose: 2400.0 mg/kg/injection, schedule: Q04DX003 (sc), vehicle: saline with Tween-80): 92 % of control

CCCCCCCCCCCCCCCC(=O)OCC1OC(n2ccc(N)nc2=O)C(O)C1O (stereo unspecified)
T/C (dose: 37.5 mg/kg/injection, schedule: Q04DX003 (sc), vehicle: saline with Tween-80): 30 % of control | T/C [6]: 11 % of control

NC(=O)c1cc(Cl)nc2nc(Cl)nc(N)c12
T/C (dose: 150.0 mg/kg/injection, schedule: Q04DX003 (ip), vehicle: saline with Tween-80): 112 % of control | T/C (dose: 300.0 mg/kg/injection, schedule: Q04DX003 (ip), vehicle: saline with Tween-80): 108 % of control | T/C (dose: 600.0 mg/kg/injection, schedule: Q04DX003 (ip), vehicle: saline with Tween-80): 90 % of control | T/C (dose: 1200.0 mg/kg/injection, schedule: Q04DX003 (ip), vehicle: saline with Tween-80): 93 % of control

CNC(=O)OCc1c(COC(=O)NC)c(-c2ccccc2)n(C)c1-c1ccccc1
T/C (dose: 100.0 mg/kg/injection, schedule: Q04DX003 (sc), vehicle: distilled water + Tween-80): 121 % of control | T/C (dose: 200.0 mg/kg/injection, schedule: Q04DX003 (sc), vehicle: distilled water + Tween-80): 51 % of control | T/C (dose: 400.0 mg/kg/injection, schedule: Q04DX003 (sc), vehicle: distilled water + Tween-80): 78 % of control | T/C (dose: 800.0 mg/kg/injection, schedule: Q04DX003 (sc), vehicle: distilled water + Tween-80): 74 % of control

Cn1cnc([N+](=O)[O-])c1S(=O)(=O)NCN1CCOCC1
T/C [7]: 94 % of control | T/C [1]: 76 % of control | T/C [2]: 94 % of control | T/C [3]: 78 % of control

Cc1cn(C2CC(O)C(CO)O2)c(=O)[nH]c1=O (stereo unspecified)
T/C (dose: 800.0 mg/kg/injection, schedule: Q04DX003 (sc), vehicle: saline): 105 % of control | T/C (dose: 1600.0 mg/kg/injection, schedule: Q04DX003 (sc), vehicle: saline): 89 % of control | T/C (dose: 3200.0 mg/kg/injection, schedule: Q04DX003 (sc), vehicle: saline): 50 % of control | T/C (dose: 6400.0 mg/kg/injection, schedule: Q04DX003 (sc), vehicle: saline): 62 % of control

S=c1[nH]cc2cnccn12
T/C [5]: 104 % of control | T/C [6]: 97 % of control | T/C (dose: 1200.0 mg/kg/injection, schedule: Q04DX003 (sc), vehicle: saline with Tween-80): 106 % of control

C[Si](C)(C)O/C=C1/CCOC1=O
T/C (dose: 1200.0 mg/kg/injection, schedule: Q04DX003 (sc), vehicle: suspension in saline): 105 % of control | T/C (dose: 2400.0 mg/kg/injection, schedule: Q04DX003 (sc), vehicle: suspension in saline): 157 % of control

CN(C(=S)S(=O)(=O)C12CC3CC(CC(C3)C1)C2)c1ccccc1
T/C (dose: 800.0 mg/kg/injection, schedule: Q04DX003 (sc), vehicle: Klucel (hydroxypropylcellulose) (HPC)): 204 % of control

O=C1N=C(Oc2ccccc2)SC1=O
T/C (dose: 400.0 mg/kg/injection, schedule: Q04DX003 (sc), vehicle: saline with Tween-80): 67 % of control

CCCCN(CCCC)C(Cl)=Nc1ccccc1
T/C (dose: 800.0 mg/kg/injection, schedule: Q04DX003 (sc), vehicle: other): 89 % of control | T/C (dose: 1600.0 mg/kg/injection, schedule: Q04DX003 (sc), vehicle: other): 124 % of control

C[C@@H]1C[C@H]2[C@@H]3CCC4=CC(=O)C=C[C@]4(C)[C@@]3(F)[C@@H](O)C[C@]2(C)[C@@]1(O)C(=O)CO
T/C (dose: 3.13 mg/kg/injection, schedule: Q01DX010 (sc), vehicle: Klucel (hydroxypropylcellulose) (HPC)): 44 % of control | T/C (dose: 6.25 mg/kg/injection, schedule: Q01DX010 (sc), vehicle: Klucel (hydroxypropylcellulose) (HPC)): 28 % of control | T/C (dose: 12.5 mg/kg/injection, schedule: Q01DX010 (sc), vehicle: Klucel (hydroxypropylcellulose) (HPC)): 35 % of control | T/C [7]: 33 % of control

ClCC[Se](Cl)(Cl)c1ccccc1
T/C (dose: 12.5 mg/kg/injection, schedule: Q04DX003 (sc), vehicle: saline): 89 % of control | T/C (dose: 25.0 mg/kg/injection, schedule: Q04DX003 (sc), vehicle: saline): 109 % of control | T/C (dose: 50.0 mg/kg/injection, schedule: Q04DX003 (sc), vehicle: saline): 80 % of control | T/C (dose: 100.0 mg/kg/injection, schedule: Q04DX003 (sc), vehicle: saline): 59 % of control

Source: PubChem BioAssay AID296 (DTP/NCI, 2004)
